Measured values as given in patent publication US7135466B2 (Kirin Beer Kabushiki Kaisha, priority 1999, dated 2006).

Target: T1, c-kit (Homo sapiens, UniProt P10721)
T1 construct: MO7e (human megakaryocytic leukemia cell line) which had been arrested for 20 hr; endogenous in cells; host or cells: MO7e human megakaryocytic leukemia cell line
Assay: Inhibitory activity against c-kit autophosphorylation (MO7e cells, h-SCF)
Format: cell-based
Details: MO7e cells, 50 ng/ml h-SCF; read-out: c-kit IC50
Experimental: Inhibitory Activity Against c-kit Autophosphorylation
MO7e (human megakaryocytic leukemia cell line) which had been arrested for 20 hr was seeded into 96 well plates at an amount of 2×10^5 per well. A solution of a test compound in DMSO was added, and a reaction was then allowed to proceed for one hr. Thereafter, the cells were stimulated by 50 ng/ml of h-SCF for 5 min, followed by replacement with lysate buffer to solubilize the cells.
Next, the solubilized cell sap was transferred to a 96-well plate with an anti-phosphotyrosine antibody (PY-20) previously immobilized thereon, and a reaction was allowed to proceed. Thereafter, the cells were reacted with an anti-c-kit antibody (c-19, Santa Cruz) as a primary antibody and were labelled with GAR (anti-rabbit IgG, horseradish peroxidase, Amersham) as a secondary antibody. Color development was then carried out in a peroxidase color development kit (Sumitomo Bakelite Co., Ltd.), and the absorbance was measured at a wavelength of 450 nm.

T1 sequence (P10721 26-976): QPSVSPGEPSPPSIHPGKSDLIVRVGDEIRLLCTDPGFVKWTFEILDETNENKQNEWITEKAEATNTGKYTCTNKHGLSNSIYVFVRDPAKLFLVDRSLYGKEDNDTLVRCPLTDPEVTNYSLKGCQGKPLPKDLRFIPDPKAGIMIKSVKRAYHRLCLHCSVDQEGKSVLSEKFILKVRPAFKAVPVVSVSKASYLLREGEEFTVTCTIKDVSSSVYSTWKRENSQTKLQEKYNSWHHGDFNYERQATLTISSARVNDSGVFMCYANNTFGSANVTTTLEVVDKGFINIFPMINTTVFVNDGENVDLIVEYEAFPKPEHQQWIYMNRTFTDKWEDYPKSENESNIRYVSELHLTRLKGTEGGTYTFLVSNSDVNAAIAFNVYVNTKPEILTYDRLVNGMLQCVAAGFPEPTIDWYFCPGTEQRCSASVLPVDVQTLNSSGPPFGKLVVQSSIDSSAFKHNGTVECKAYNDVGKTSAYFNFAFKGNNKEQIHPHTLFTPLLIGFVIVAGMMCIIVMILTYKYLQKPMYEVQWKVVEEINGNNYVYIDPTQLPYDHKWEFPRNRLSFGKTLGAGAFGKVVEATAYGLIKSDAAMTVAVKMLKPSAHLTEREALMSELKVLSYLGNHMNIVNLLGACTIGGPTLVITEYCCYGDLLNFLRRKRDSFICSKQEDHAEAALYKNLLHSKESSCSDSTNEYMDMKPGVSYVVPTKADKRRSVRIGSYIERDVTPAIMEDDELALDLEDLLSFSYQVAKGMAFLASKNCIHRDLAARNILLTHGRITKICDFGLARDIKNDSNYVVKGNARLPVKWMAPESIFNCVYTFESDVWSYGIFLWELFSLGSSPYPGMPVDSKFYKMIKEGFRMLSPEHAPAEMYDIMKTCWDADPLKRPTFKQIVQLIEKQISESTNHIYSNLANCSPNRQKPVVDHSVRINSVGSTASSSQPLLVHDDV

| Structure (SMILES) | IC50 [nM] |
| --- | --- |
| COc1cc2nccc(Oc3ccc(OCC(=O)Nc4cccc(C)c4)cc3)c2cc1OC [Example 784, N1-(3-Methylphenyl)-2-{4-[(6,7-dimethoxy-4-quinolyl)oxy]phenoxy}acetamide] | 80 |
| COc1cc2nccc(Oc3ccc(OCCNc4ccc(C)cc4)cc3)c2cc1OC [Example 787, N-(2-{4-[(6,7-Dimethoxy-4-quinolyl)oxy]phenoxy}ethyl)-N-(4-methylphenyl)amine] | 37 |
| COc1cc(Oc2ccnc3cc(OC)c(OC)cc23)ccc1NC(=O)NCCN1CCCCC1 [Example 681, N-{4-[(6,7-Dimethoxy-4-quinolyl)oxy]-2-methoxyphenyl}-N′-(2-piperidinoethyl)urea] | 270 |
| COc1cccc(NC(=O)COc2ccc(Oc3ccnc4cc(OC)c(OC)cc34)cc2)c1 [Example 778, N1-(3-Methoxyphenyl)-2-{4-[(6,7-dimethoxy-4-quinolyl)oxy]phenoxy}acetamide] | 84 |

Same assay, conditions: MO7e cells, h-SCF 50 ng/ml; read-out: c-kit IC50

| Structure (SMILES) | IC50 [nM] |
| --- | --- |
| COc1cc2nccc(Oc3ccc(NC(=O)OCc4ccccc4)c(C)c3C)c2cc1OC [Example 219, Benzyl N-{4-[(6,7-dimethoxy-4-quinolyl)oxy]-2,3-dimethylphenyl}carbamate] | < 30 |
| COc1cc2nccc(Oc3cc(C)c(NC(=O)Oc4ccccc4)cc3C)c2cc1OC [Example 224, Phenyl N-{4-[(6,7-dimethoxy-4-quinolyl)oxy]-2,5-dimethylphenyl}carbamate] | 147 |

The remaining lines, values ahead:

| IC50 [nM] | Structure (SMILES) |
| --- | --- |
| 71 | COc1cc2nccc(Oc3ccc(NC(=O)OCc4cccc(Cl)c4)cc3)c2cc1OC [Example 228, 3-Chlorobenzyl N-{4-[(6,7-dimethoxy-4-quinolyl)oxy]phenyl}carbamate] |
| 372 | COc1cc2nccc(Oc3ccc(NC(=O)SCc4ccc(C)cc4)cc3)c2cc1OC [Example 107, 4-Methylbenzyl {4-[(6,7-dimethoxy-4-quinolyl)oxy]anilino}methanethioate] |

Same assay, conditions: MO7e cells, h-SCF stimulation; read-out: c-kit IC50

| Structure (SMILES) | IC50 [nM] |
| --- | --- |
| COc1cc2nccc(Oc3ccc(NC(=S)NC(=O)c4ccccc4Cl)cc3)c2cc1OC [Example 898, N-(2-Chlorobenzoyl)-N′-{4-[(6,7-dimethoxy-4-quinolyl)oxy]phenyl}thiourea] | 637 |
| COc1cc2nccc(Oc3ccc(NCCOc4ccccc4Cl)cc3)c2cc1OC [Example 868, N-[2-(2-Chlorophenoxy)ethyl]-N-{4-[(6,7-dimethoxy-4-quinolyl)oxy]phenyl}amine] | 70 |
| COc1cc2nccc(Oc3ccc(SCCCCOc4ccccc4F)cc3)c2cc1OC [Example 843, 4-(4-{[4-(2-Fluorophenoxy)butyl]sulfanyl}phenoxy)-6,7-dimethoxyquinoline] | 263 |
| COc1cc2nccc(Oc3ccc(SCCOc4cccc(Cl)c4)cc3)c2cc1OC [Example 820, 4-(4-{[2-(3-Chlorophenoxy)ethyl]sufanyl}phenoxy)-6,7-dimethoxyquinoline] | 187 |
| COc1cc2nccc(Oc3ccc(NCCOc4c(F)cccc4F)cc3)c2cc1OC [Example 857, N-[2-(2,6-Difluorophenoxy)ethyl]-N-{4-[(6,7-dimethoxy-4-quinolyl)oxy]phenyl}amine] | 195 |
| COc1cc2nccc(Oc3ccc(SCCCCOc4cccc(C)c4)cc3)c2cc1OC [Example 844, 6,7-Dimethoxy-4-(4-{[4-(3-methylphenoxy)butyl]sulfanyl}phenoxy)quinoline] | 450 |
| COc1cc2ncnc(Oc3ccc(NCCOc4ccccc4O)cc3)c2cc1OC [Example 874, 2-(2-{4-[(6,7-Dimethoxy-4-quinazolinyl)oxy]anilino}ethoxy)phenol] | 151 |
| COc1cc2nccc(Oc3ccc(NC(=S)NC(=O)c4ccccc4Br)cc3F)c2cc1OC [Example 914, N-(2-Bromobenzoyl)-N′-{4-[(6,7-dimethoxy-4-quinolyl)oxy]-3-fluorophenyl}thiourea] | 299 |
| COc1cc2nccc(Oc3ccc(SCCCOc4ccccc4F)cc3)c2cc1OC [Example 842, 4-(4-{[3-(2-Fluorophenoxy)propyl]sulfanyl}phenoxy)-6,7-dimethoxyquinoline] | 127 |
| COc1cc2nccc(Oc3ccc(NC(=S)NC(=O)C4CC4)cc3F)c2cc1OC [Example 1056, N-Cyclopropylcarbonyl-N′-{4-[(6,7-dimethoxy-4-quinolyl)oxy]-3-fluorophenyl}thiourea] | 932 |
| COc1cc2nccc(Oc3ccc(NC(=S)NC(=O)CCc4ccccc4C)cc3F)c2cc1OC [Example 1134, N-{4-[(6,7-Dimethoxy-4-quinolyl)oxy]-3-fluorophenyl}-N′-[3-(2-methylphenyl)propanoyl]thiourea] | 169 |

Now from value to compound:

| IC50 [nM] | Structure (SMILES) |
| --- | --- |
| 166 | COc1cc2nccc(Oc3ccc(NC(=S)NC(=O)c4cccc(Br)c4)cc3)c2cc1OC [Example 935, N-(3-Bromobenzoyl)-N′-{4-[(6,7-dimethoxy-4-quinolyl)oxy]phenyl}thiourea] |
| 130 | COc1cc2nccc(Oc3ccc(NCCOc4ccc(Cl)cc4)cc3)c2cc1OC [Example 859, N-[2-(4-Chlorophenoxy)ethyl]-N-{4-[(6,7-dimethoxy-4-quinolyl)oxy]phenyl}amine] |
| 493 | COc1cccc(C(=O)NC(=S)Nc2ccc(Oc3ccnc4cc(OC)c(OC)cc34)cc2)c1 [Example 933, N-{4-[(6,7-Dimethoxy-4-quinolyl)oxy]phenyl}-N′-(3-methoxybenzoyl)thiourea] |
| 701 | COc1ccc(C(=O)NC(=S)Nc2ccc(Oc3ccnc4cc(OC)c(OC)cc34)cc2)cc1 [Example 963, N-{4-[(6,7-Dimethoxy-4-quinolyl)oxy]phenyl}-N′-(4-methoxybenzoyl)thiourea] |
| 523 | COc1cc2nccc(Oc3ccc(NC(=S)NC(=O)c4ccc(Cl)cc4)cc3F)c2cc1OC [Example 971, N-(4-Chlorobenzoyl)-N′-{4-[(6,7-dimethoxy-4-quinolyl)oxy]-3-fluorophenyl}thiourea] |
| 224 | COc1cccc(C(=O)NC(=S)Nc2ccc(Oc3ccnc4cc(OC)c(OC)cc34)c(Cl)c2)c1 [Example 950, N-{3-Chloro-4-[(6,7-dimethoxy-4-quinolyl)oxy]phenyl}-N′-(3-methoxybenzoyl)thiourea] |
| 177 | COc1cc2nccc(Oc3ccc(NC(=S)NC(=O)c4ccco4)cc3)c2cc1OC [Example 1033, N-{4-[(6,7-Dimethoxy-4-quinolyl)oxy]phenyl}-N′-(2-furylcarbonyl)thiourea] |
| 32 | CCc1ccc(OCCNc2ccc(Oc3ccnc4cc(OC)c(OC)cc34)cc2)cc1 [Example 864, N-{4-[(6,7-Dimethoxy-4-quinolyl)oxy]phenyl}-N-[2-(4-ethylphenoxy)ethyl]amine] |
| 126 | COc1cc2nccc(Oc3ccc(NCCOc4ccc(F)cc4)cc3)c2cc1OC [Example 866, N-{4-[(6,7-Dimethoxy-4-quinolyl)oxy]phenyl}-N-[2-(4-fluorophenoxy)ethyl]amine] |
| 299 | COc1cc2nccc(Oc3ccc(NC(=S)NC(=O)c4ccccc4C(F)(F)F)cc3)c2cc1OC [Example 902, N-{4-[(6,7-Dimethoxy-4-quinolyl)oxy]phenyl}-N′-[2-(trifluoromethyl)benzoyl]thiourea] |
| 481 | CCOc1ccc(C(=O)NC(=S)Nc2ccc(Oc3ccnc4cc(OC)c(OC)cc34)c(F)c2)cc1 [Example 990, N-{4-[(6,7-Dimethoxy-4-quinolyl)oxy]-3-fluorophenyl}-N′-(4-ethoxybenzoyl)thiourea] |

Same assay, conditions: Mo7e, figure in parentheses in −( ); at 1000 nM

| Structure (SMILES) | inhibition at 1 µM [%] |
| --- | --- |
| COc1cc2nccc(Oc3ccc(NC(=S)NC(=O)c4ccc(F)cc4F)c(C)c3C)c2cc1OC [Example 1088, N-(2,4-Difluorobenzoyl)-N′-{4-[(6,7-dimethoxy-4-quinolyl)oxy]-2,3-dimethylphenyl}thiourea] | 23 |
| COc1cc2nccc(Oc3ccc(NC(=S)NC(=O)c4ccc(Cl)cc4Cl)cc3F)c2cc1OC [Example 1014, N-(2,4-Dichlorobenzoyl)-N′-{4-[(6,7-dimethoxy-4-quinolyl)oxy]-3-fluorophenyl}thiourea] | 30 |
| COc1cc2nccc(Oc3ccc(NC(=S)NC(=O)c4ccccc4Cl)c(C)c3)c2cc1OC [Example 1097, N-(2-Chlorobenzoyl)-N′-{4-[(6,7-dimethoxy-4-quinolyl)oxy]-2-methylphenyl}thiourea] | 8 |

Now from value to compound:

| inhibition at 1 µM [%] | Structure (SMILES) |
| --- | --- |
| 32 | COc1cc2nccc(Oc3ccc(NC(=S)NC(=O)c4ccc(F)cc4)c(C)c3)c2cc1OC [Example 1093, N-{4-[(6,7-Dimethoxy-4-quinolyl)oxy]-2-methylphenyl}-N′-(4-fluorobenzoyl)thiourea] |
| 34 | COc1cc2nccc(Oc3ccc(NC(=S)NC(=O)c4ccccc4)c(F)c3)c2cc1OC [Example 903, N-Benzoyl-N′-{4-[(6,7-dimethoxy-4-quinolyl)oxy]-2-fluorophenyl}thiourea] |
| 25 | COc1cc2nccc(Oc3ccc(NC(=S)NC(=O)c4ccccc4OC)cc3Cl)c2cc1OC [Example 923, N-{3-Chloro-4-[(6,7-dimethoxy-4-quinolyl)oxy]phenyl}-N′-(2-methoxybenzoyl)thiourea] |
| 32 | COc1cc2ncnc(Oc3ccc(NC(=S)NC(=O)c4ccc([N+](=O)[O-])cc4)cc3)c2cc1OC [Example 987, N-{4-[(6,7-Dimethoxy-4-quinazolinyl)oxy]phenyl}-N′-(4-nitrobenzoyl)thiourea] |

Same assay, conditions: Mo7e, figure within parentheses in −( ) or >1000( ); at 1000 nM

| Structure (SMILES) | inhibition at 1 µM [%] |
| --- | --- |
| COc1cc2ncnc(Oc3ccc(NC(=S)NCCCN4CCN(C)CC4)cc3)c2cc1OC [Example 536] | 7 |
